US20040253665A1, “Novel peptide-producing enzyme, microbe producing the enzyme and method for dipeptide synthesis using them” (AJINOMOTO CO., INC., priority 2002, published 2004)
Like-named read-outs stand apart in the source and are kept apart here. Non-standard residues stand in square brackets, D forms with d. Residues, ends and D or L forms follow the SMILES beside them. *: point of attachment. 2Nal = N[C@@H](Cc1ccc2ccccc2c1)C(=O)O; Boc = CC(C)(C)OC(=O)*

How the values were obtained:
[1] = system: peptide-producing enzyme (Mono S fraction) from Empedobacter brevis strain FERM BP-8113; assay: Enzyme substrate specificity (1)-(10), (13), (14); type: biochemical; parameters: key: +: those for which production was confirmed but which were unable to be quantified due to the absence of a standard; a trace amount
Description: Ester specificity was examined in the case of using L-amino acid ester for the carboxy component. […] The amounts of L-Ala-L-Gln produced in this reaction are shown in Table 4 (HCl represents hydrochloride in Table 4). Peptide production was examined in the case of using L-alanine methyl ester for the carboxy component and using various L-amino acids for the amine component. […] (The “+” mark indicates those peptides for which production was confirmed but which were unable to be quantified due to the absence of a standard, while “tr” indicates a trace amount.) Peptide production was examined in the case of using various types of L-amino acid methyl esters for the carboxy component and using L-glutamine for the amine component. […] Peptide production was examined in the case of using various L-amino acid methyl esters for the carboxy component and various L-amino acids for the amine component. […] (The “tr” indicates a trace amount.) Furthermore, Tween-80 was added to the reaction system to a final concentration of 0.1% in the case of using L-Trp-OMe. (The “+” mark indicates those peptides for which production was confirmed but which were unable to be quantified due to the absence of a standard.) […] (The “tr” indicates a trace amount.) Peptide production was examined using various L-amino acid amides for the carboxy component, and various L-amino acids for the amine component. […] Peptide production was examined in the case of using various L-alanine methyl esters for the carboxy component and C-protected L-amino acids for the amine component. […] Peptide production was examined in the case of using various amino acid methyl esters for the carboxy component and methylamine for the amine component. […] Peptide production was examined in the case of using β-amino acid ester for the carboxy component or β-amino acid for the amine component. […] (The “tr” indicates a trace amount.) Oligopeptide production was examined in the case of using L-amino acid ester for the carboxy component and peptide for the amine component. […] Substrate specificity was additionally assessed using the same enzyme fraction as that used in Example 5. […] (A “+” mark indicates those for which production was confirmed but which were unable to be quantified due to the absence of a standard, while “tr” indicates a trace amount). Substrate specificity with respect to oligopeptide production was assessed using the same enzyme fraction as Example 26. […] (A “+” mark indicates those for which production was confirmed but which were unable to be quantified due to the absence of a standard, while “tr” indicates a trace amount). It should be noted that hydrochlorides were used for all of the carboxy components.

[2] = system: Empedobacter brevis strain FERM BP-8113 microbial cells; assay: Production of peptide using microbial cells of Empedobacter brevis; type: cell-based; details: microbial cell suspension 100 g/L mixed 1:1 with 200 mM carboxy component and 400 mM amino acid, pH 9.0, 10 mM EDTA, 18° C., 2 hours
Protocol: A 50 mL medium (pH 6.2) containing 5 grams (hereinafter, “g”) of glucose, 5 g of ammonium sulfate, 1 g of monopotassium phosphate, 3 g of dipotassium phosphate, 0.5 g of magnesium sulfate, 10 g of yeast extract and 10 g of peptone in 1 liter (hereinafter, “L”) was transferred to a 500 mL Sakaguchi flask and sterilized at 115° C. for 15 minutes. This medium,was then inoculated with one loopful of the culture broth of Empedobacter brevis strain FERM BP-8113 (Depositary institution: National Institute for Advanced Industrial Science and Technology, International Patent Organism Depositary, Address of depositary institution: Chuo Dai-6, 1-1 Higashi 1-Chome, Tsukuba-shi, Ibaraki-ken, Japan, International deposit transfer date: Jul. 8, 2002) that had been cultured at 30° C. for 16 hours in the same medium, followed by shake culturing at 30° C. for 16 hours and 120 strokes/min.

[3] = system: peptide-producing enzyme (Mono S fraction) from Empedobacter brevis strain FERM BP-8113; assay: Production of L-alanyl-L-glutamine from L-alanine methyl ester and L-glutamine with enzyme fraction; type: biochemical; details: for L-Ala-L-Gln: L-alanine methyl ester hydrochloride 100 mM, 18° C., 2 hours
Protocol: On the other hand, there was hardly any production of L-Ala-L-Gln observed in an enzyme-non-added lot, and the […] was only about 0.07 mM after reacting for 120 minutes.

[4] = system: peptide-producing enzyme (Mono S fraction) from Empedobacter brevis strain FERM BP-8113; assay: Enzyme substrate specificity (1)-(10), (13), (14); type: biochemical; details: pH 9.0, 25° C., 3 hours
Outline: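 Mono S-purified peptide-forming enzyme from Empedobacter brevis FERM BP-8113, given L-amino acid esters (hydrochlorides) or amides as carboxy component with amino acids, C-protected amino acids, methylamine, β-amino acids or peptides as amine component. Dipeptide/oligopeptide product quantified; Tween-80 0.1% added with L-Trp-OMe.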

[5] = system: enzyme (SP-Sepharose HP fraction) derived from Sphingobacterium sp. strain FERM BP-8124; type: biochemical; parameters: key to Produced peptide (mM): +: those peptides for which production was confirmed but which were unable to be quantified due to the absence of a standard; a trace amount; details: pH 9.0, 25° C.
Outline: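 Purified enzyme (SP-Sepharose HP fraction, 0.33 units) reacted with carboxy components (100 mM, as hydrochlorides) and amine components (150 mM) in 100 mM borate buffer pH 9.0 with 10 mM EDTA. Reactions ran 1.5 h at 25 °C to assess peptide and oligopeptide formation.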

[6] = system: peptide-producing enzyme (Mono S fraction) from Empedobacter brevis strain FERM BP-8113; assay: Enzyme inhibitors: effect on production of L-alanyl-L-glutamine; type: biochemical; details: for Inhibition of the enzyme (in words): serine enzyme inhibitors at 10 mM
[7] = Comparison of ability to catalyze peptide production with known enzymes; type: biochemical; details: for L-Ala-L-Gln production rate: 100 mM L-alanine methyl ester, 200 mM L-glutamine, borate buffer pH 9.0, 25° C., enzyme amount as in Table 14; for Ratio of L-Ala-L-Gln production rate per enzyme unit weight: enzyme of present invention = 100.0
Protocol: The peptide formation ability of the present enzyme was compared with that of known enzymes. […] The enzyme uniformly purified in Example 3 was used for the source of the enzyme of the present invention. The reaction was carried out by adding enzyme to 100 μl of borate buffer (pH 9.0) containing 100 mM L-alanine methyl ester and 200 mM L-glutamine and allowing to react at 25° C. Furthermore, enzyme dissolved in 10 mM acetate buffer (pH 5.0) containing 1 mM EDTA was used for the carboxypeptidase, while enzyme dissolved in 10 mM acetate buffer (pH 5.0) containing 2 mM EDTA, 0.1 M KCl and 5 mM dithiothreitol was used for the thiol endopeptidase.

[8] = 100 mM L-alanine methyl ester hydrochloride, L-amino acid 150 mM
[9] = L-amino acid amide hydrochloride 100 mM as carboxy component, L-amino acid 150 mM
[10] = Table 15-4, amides or methylamine as components, 100 mM / 150 mM, 0.33 units enzyme, 1.5 hours
[11] = inhibitor at 10 mM, pH 9.0, 25° C., 5 minutes, 100 = absence of enzyme inhibitor
[12] = L-amino acid methyl ester hydrochloride 100 mM, L-amino acid 150 mM
[13] = Table 15-3, carboxy component 100 mM, amine component 150 mM, 0.33 units enzyme, 1.5 hours

With L-Ala-Gly-L-Phe the “Produced peptide (mM)” value ([1]; oligopeptide production, amount of enzyme 0.1 units, pH 9.0, 25° C., 3 hours) was “+”.

For C[C@H](N)C(=O)N[C@@H](CCC(N)=O)C(=O)O [L-Ala-L-Gln, L-alanyl-L-glutamine] (H-Ala-Gln-OH), the “Produced peptide” value [2] was 68.0 mM, the L-alanyl-L-glutamine produced ([3]; 3 μl enzyme fraction, 100 mM L-alanine methyl ester hydrochloride, 200 mM L-glutamine, pH 9.0, 18° C., enzyme-added lot (FIG. 3)) was 83 mM and the “L-Ala-L-Gln” value ([3]; L-glutamine 100 mM) was 68.2 mM. The “L-Ala-L-Gln” value ([3]; L-glutamine 110 mM) was 72.1 mM, the “L-Ala-L-Gln” value ([3]; L-glutamine 120 mM) was 73.3 mM and the “L-Ala-L-Gln” value ([3]; L-glutamine 130 mM) was 75.1 mM. For the same molecule, the “L-Ala-L-Gln” value ([3]; L-glutamine 150 mM) was 75.5 mM, the “L-Ala-L-Gln” value ([3]; L-glutamine 200 mM) was 82.0 mM and the “Produced peptide” value [4, 8] was 79.3 mM. The “Produced peptide” value [4, 9] was 7.6 mM, the “Produced peptide” value ([4]; L-amino acid methyl ester hydrochloride 100 mM, 150 mM L-glutamine) was 74.6 mM and the L-alanyl-L-glutamine produced ([5]; 10 μl SP-Sepharose HP fraction (about 27 U/ml) in 90 μl with 111 mM L-alanine methyl ester hydrochloride, 222 mM L-glutamine, 120 minutes, enzyme-added lot) was 73 mM. The “Produced peptide” value [5, 10] was 0.3 mM.

For O=S(=O)(F)Cc1ccccc1 [Phenylmethylsulfonyl fluoride], the “Relative activity of L-Ala-L-Gln production (%)” value (“Relative activity … (%)” below) [6, 11] was 115% and the “Inhibition of the enzyme (in words)” value [6] was “not inhibited”.

For L-Ala-L-Ala-L-Gln, the concentration of by-product ([3]; 3 μl enzyme fraction, 100 mM L-alanine methyl ester hydrochloride, 200 mM L-glutamine, pH 9.0, 18° C., enzyme-added lot) was 1.3 mM and the “Produced peptide” value ([4]; L-amino acid ester 100 mM, amino acid or peptide amine component 150 mM) was 15.2 mM.

With CCN1C(=O)C=CC1=O [N-Ethyl maleimide] the “Relative activity … (%)” value [6, 11] was 110%.

With CC(C)(C)OC(=O)NCCCC[C@H](N)C(=O)N[C@@H](CCC(N)=O)C(=O)O [H-Lys(Boc)-Gln-OH] (H-Lys(Boc)-Gln-OH) the “Produced peptide (mM)” value ([1]; carboxy component 100 mM, amine component 150 mM, 0.1 unit enzyme, 25° C., reaction time 2 hr) was “+”.

For N=C(N)Nc1ccc(C(=O)Oc2ccc([N+](=O)[O-])cc2)cc1 [p-Nitrophenyl-p′-guanidino benzoate, p-nitrophenyl-p′-guanidinobenzoate], the “Relative activity … (%)” value [6, 11] was 0.1% and the “Inhibition of the enzyme (in words)” value [6] was “inhibited”.

In the case of c1cnc2c(c1)ccc1cccnc12 [o-Phenanthroline], the “Relative activity … (%)” value [6, 11] is reported as 96%.

In the case of C[C@H](N)C(=O)N[C@@H](Cc1ccc2ccccc2c1)C(=O)O [H-Ala-2-Nal-OH] (H-Ala-[2Nal]-OH), the “Produced peptide (mM)” value ([1]; carboxy component 20 mM, amine component 20 mM, 0.1 unit enzyme, 25° C., reaction time 3 hr) is reported as “+”.

For Ficin, the “L-Ala-L-Gln production rate” value [7] was 0.0096 mM/min and the “Ratio of L-Ala-L-Gln production rate per enzyme unit weight” value (“Ratio … per enzyme unit weight” below) [7] was 0.0017.

With L-Ala-L-Phe-L-Met the “Produced peptide (mM)” value ([1]; oligopeptide production, amount of enzyme 0.2 units, pH 9.0, 25° C., 3 hours) was “+”.

For C[C@H](N)C(=O)N[C@@H](Cc1cnc[nH]1)C(=O)O [L-Ala-L-His] (H-Ala-His-OH), the “Produced peptide” value [2] was 52.1 mM, the “Produced peptide” value [4, 8] was 66.9 mM and the “Produced peptide” value [4, 9] was 3.9 mM. For the same molecule, the “Produced peptide” value ([5]; Table 15-1, carboxy component 100 mM, amine component 150 mM, 0.33 units enzyme, 1.5 hours) was 73.6 mM and the “Produced peptide (mM)” value [5, 10] was “tr”.

In the case of O=C(O)CN(CCN(CC(=O)O)CC(=O)O)CC(=O)O [EDTA, ethylenediaminetetraacetic acid], the “Relative activity … (%)” value [6, 11] is reported as 96%.

With CSCC[C@H](NC(=O)[C@@H](N)C(C)C)C(=O)O [L-Val-L-Met] (H-Val-Met-OH) the “Produced peptide” value [2] was 10.5 mM, the “Produced peptide” value [4, 12] was 10.3 mM and the “Produced peptide” value [5, 13] was 6.8 mM.

In the case of CSCC[C@H](N)C(=O)N[C@@H](Cc1ccccc1)C(=O)O [L-Met-L-Phe] (H-Met-Phe-OH), the “Produced peptide” value [2] is reported as 28.5 mM, the “Produced peptide” value [4, 12] is reported as 34.0 mM and the “Produced peptide” value [5, 13] is reported as 8.9 mM.

In the case of O=C(O)CI [Monoiodoacetate], the “Relative activity … (%)” value ([6]; pH 9) is reported as 101%.

With “Chymopapain: thiol endopeptidase described in EP 359399B1, purified enzyme manufactured by Sigma” the “L-Ala-L-Gln production rate” value [7] was 0.0100 mM/min and the “Ratio … per enzyme unit weight” value [7] was 0.0013.

For Bromelain, the “L-Ala-L-Gln production rate” value [7] was 0.0062 mM/min and the “Ratio … per enzyme unit weight” value [7] was 0.0010.

B1: Carboxypeptidase Y: known enzyme described in EP 278787A1, purified enzyme manufactured by Sigma (protein, UniProt P00729 112-532, looked up)
Carboxypeptidase Y: KIKDPKILGIDPNVTQYTGYLDVEDEDKHFFFWTFESRNDPAKDPVILWLNGGPGCSSLTGLFFELGPSSIGPDLKPIGNPYSWNSNATVIFLDQPVNVGFSYSGSSGVSNTVAAGKDVYNFLELFFDQFPEYVNKGQDFHIAGESYAGHYIPVFASEILSHKDRNFNLTSVLIGNGLTDPLTQYNYYEPMACGEGGEPSVLPSEECSAMEDSLERCLGLIESCYDSQSVWSCVPATIYCNNAQLAPYQRTGRNVYDIRKDCEGGNLCYPTLQDIDDYLNQDYVKEAVGAEVDHYESCNFDINRNFLFAGDWMKPYHTAVTDLLNQDLPILVYAGDKDFICNWLGNKAWTDVLPWKYDEEFASQKVRNWTASITDEVAGEVKSYKHFTYLRVFNGGHMVPFDVPENALSMVNEWIHGGFSL
With B1 the “L-Ala-L-Gln production rate” value [7] was 0.0257 mM/min and the “Ratio … per enzyme unit weight” value [7] was 0.0191.

B2: Papain: thiol endopeptidase described in EP 359399B1, purified enzyme manufactured by Sigma (protein, UniProt P00784 134-345, looked up)
Papain: IPEYVDWRQKGAVTPVKNQGSCGSCWAFSAVVTIEGIIKIRTGNLNEYSEQELLDCDRRSYGCNGGYPWSALQLVAQYGIHYRNTYPYEGVQRYCRSREKGPYAAKTDGVRQVQPYNEGALLYSIANQPVSVVLEAAGKDFQLYRGGIFVGPCGNKVDHAVAAVGYGPNYILIKNSWGTGWGENGYIRIKRGTGNSYGVCGLYTSSFYPVKN
In the case of B2, the “L-Ala-L-Gln production rate” value [7] is reported as 0.0106 mM/min and the “Ratio … per enzyme unit weight” value [7] is reported as 0.0021.
